Assay results as given in patent US12629374B2, “Antimalarial agents” (Merck Sharp & Dohme LLC, priority 2020, dated 2026).
Like-named read-outs stand apart in the source and are kept apart here.

Test system: ring stage parasites
Experiment: Parasite growth potency assay, 72 hours, LDH readout
Assay type: cell-based
Details: parasite growth measured by LDH assay after 72 hours at 37° C., 0.7% rings, 2% haematocrit, read-out: EC50
In short: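 Parasite growth was quantified by LDH assay after a −80 °C freeze-thaw. Before that, compound was incubated for 72 h at 37 °C under humidified gas with ring-stage cultures adjusted to 0.7% parasitemia and 2% haematocrit in serum- and albumax-supplemented RPMI-Hepes.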

Row | Compound | EC50 (72 h) [nM] | other results
1 | COCC[C@H](c1cccc(C(=O)N[C@@H]2c3cc(F)ccc3C[C@H]2O)c1)N1C(=N)NC(C)(C)CC1=O [Example 200, [1-[(1R)-1-[3-[(6-fluoro-2-hydroxy-indan-1-yl)carbamoyl]phenyl]-3-methoxy-propyl]-4,4-dimethyl-6-oxo-hexahydropyrimidin-2-ylidene]ammonium; 2,2,2-trifluoroacetate] | 7.1 | –
2 | CCC1(CC)CC(=O)N([C@H](CCOCCOCCOCCN=[N+]=[N-])c2cccc(C(=O)N[C@H]3CC(C)(C)Oc4ccccc43)c2)C(=N)N1 [Example 201, [1-[(1R)-3-[2-[2-(2-azidoethoxy)ethoxy]ethoxy]-1-[3-[[(4S)-2,2-dimethylchroman-4-yl]carbamoyl]phenyl]propyl]-4,4-diethyl-6-oxo-hexahydropyrimidin-2-ylidene]ammonium; 2,2,2-trifluoroacetate] | 1.2 | –
3 | CCC1(CC)CC(=O)N([C@H](CCOC)c2cccc(C(=O)N[C@@H]3c4ccccc4C[C@@H]3O)c2)C(=N)N1 [Example 202, [4,4-diethyl-1-[(1R)-1-[3-[[(1R,2S)-2-hydroxyindan-1-yl]carbamoyl]phenyl]-3-methoxy-propyl]-6-oxo-hexahydropyrimidin-2-ylidene]ammonium; 2,2,2-trifluoroacetate] | 5.3 | –
4 | CCC1(CC)CC(=O)N([C@H](CCOC)c2cccc(C(=O)N[C@@H]3c4ccccc4OC(C)(C)C3(C)O)c2)C(=N)N1 (stereo partly drawn) [Example 203, 3-[(1R)-1-(4,4-diethyl-2-imino-6-oxo-hexahydropyrimidin-1-yl)-3-methoxy-propyl]-N-(3-hydroxy-2,2,3-trimethyl-chroman-4-yl)benzamide] | 0.3 | –
5 | CCC1(CC)CC(=O)N([C@H](C)c2cccc(C(=O)N[C@@H]3c4ccccc4OC[C@@]3(C)O)c2)C(=N)N1 [Example 205A, [4,4-diethyl-1-[(1R)-1-[3-[[(3S,4R)-3-hydroxy-3-methyl-chroman-4-yl]carbamoyl]phenyl]ethyl]-6-oxo-hexahydropyrimidin-2-ylidene]ammonium; 2,2,2-trifluoroacetate] | 1.1 | –
6 | CCC1(CC)CC(=O)N([C@H](C)c2cccc(C(=O)N[C@@H]3c4ccccc4OC[C@]3(C)O)c2)C(=N)N1 [Example 205B, [4,4-diethyl-1-[(1R)-1-[3-[[(3R,4R)-3-hydroxy-3-methyl-chroman-4-yl]carbamoyl]phenyl]ethyl]-6-oxo-hexahydropyrimidin-2-ylidene]ammonium; 2,2,2-trifluoroacetate] | – | EC50 (trifluoroacetate): 1.9 nM
7 | CC[C@H](c1cccc(C(=O)N[C@@H]2c3ccccc3OC[C@@]2(C)O)c1)N1C(=N)NC(CC)(CC)CC1=O [Example 206A, 3-[1-(4,4-diethyl-2-imino-6-oxo-hexahydropyrimidin-1-yl)propyl]-N-[(3S,4R)-3-hydroxy-3-methyl-chroman-4-yl]benzamide] | 1 | –
8 | CC[C@H](c1cccc(C(=O)N[C@@H]2c3ccccc3OC[C@]2(C)O)c1)N1C(=N)NC(CC)(CC)CC1=O [Example 206B, [4,4-diethyl-1-[1-[3-[[(3R,4R)-3-hydroxy-3-methyl-chroman-4-yl]carbamoyl]phenyl]propyl]-6-oxo-hexahydropyrimidin-2-ylidene]ammonium; 2,2,2-trifluoroacetate] | – | EC50 (trifluoroacetate): 0.7 nM
9 | CC[C@H](c1cccc(C(=O)N[C@@H]2c3ccccc3OC(C)(C)[C@H]2O)c1)N1C(=N)NC(CC)(CC)CC1=O [Example 207A, [4,4-diethyl-1-[1-[3-[[(3S,4R)-3-hydroxy-2,2-dimethyl-chroman-4-yl]carbamoyl]phenyl]propyl]-6-oxo-hexahydropyrimidin-2-ylidene]ammonium; 2,2,2-trifluoroacetate] | 0.3 | –
10 | CC[C@@H](c1cccc(C(=O)N[C@@H]2c3ccccc3OC(C)(C)[C@H]2O)c1)N1C(=N)NC(CC)(CC)CC1=O [Example 207B, [4,4-diethyl-1-[1-[3-[[(3S,4R)-3-hydroxy-2,2-dimethyl-chroman-4-yl]carbamoyl]phenyl]propyl]-6-oxo-hexahydropyrimidin-2-ylidene]ammonium; 2,2,2-trifluoroacetate] | 72 | –
11 | CC[C@H](c1cccc(C(=O)N[C@@H]2c3ccccc3C[C@H]2O)c1)N1C(=N)NC(CC)(CC)CC1=O [Example 208, [4,4-diethyl-1-[1-[3-[[(1R,2R)-2-hydroxyindan-1-yl]carbamoyl]phenyl]propyl]-6-oxo-hexahydropyrimidin-2-ylidene]ammonium; 2,2,2-trifluoroacetate] | 0.7 | –
12 | C#CCC[C@H](c1cccc(C(=O)N[C@H]2CCOc3ccccc32)c1)N1C(=N)NC(CC)(CC)CC1=O [Example 209, [1-[1-[3-LL(4R)-chroman-4-yl]carbamoyl]phenyl]pent-4-ynyl]-4,4-diethyl-6-oxo-hexahydropyrimidin-2-ylidene]ammonium; 2,2,2-trifluoroacetate] | 8.9 | –
13 | C#CCCC[C@H](c1cccc(C(=O)N[C@H]2CCOc3ccccc32)c1)N1C(=N)NC(CC)(CC)CC1=O [Example 210A, [1-[1-[3-[[(4S)-chroman-4-yl]carbamoyl]phenyl]hex-5-ynyl]-4,4-diethyl-6-oxo-hexahydropyrimidin-2-ylidene]ammonium; 2,2,2-trifluoroacetate] | 0.7 | –
14 | C#CCCCC(c1cccc(C(=O)N[C@@H]2CCOc3ccccc32)c1)N1C(=N)NC(CC)(CC)CC1=O (stereo partly drawn) [Example 210B, [1-[1-[3-[[(4R)-chroman-4-yl]carbamoyl]phenyl]hex-5-ynyl]-4,4-diethyl-6-oxo-hexahydropyrimidin-2-ylidene]ammonium; 2,2,2-trifluoroacetate] | – | EC50 (trifluoroacetate): 2.3 nM
15 | C#CCCCC(c1cccc(C(=O)NC2CCOc3ccccc32)c1)N1C(=N)NC(CC)(CC)CC1=O [Example 210C, [1-[1-[3-[[(4S)-chroman-4-yl]carbamoyl]phenyl]hex-5-ynyl]-4,4-diethyl-6-oxo-hexahydropyrimidin-2-ylidene]ammonium; 2,2,2-trifluoroacetate] | – | EC50 (trifluoroacetate): 6.9 nM
16 | C#CCC[C@@H](c1cccc(C(=O)NC2CC(C)(C)Oc3ccccc32)c1)N1C(=N)NC(CC)(CC)CC1=O (stereo partly drawn) [Example 214A, 3-[(1S)-1-(4,4-diethyl-2-imino-6-oxo-hexahydropyrimidin-1-yl)pent-4-ynyl]-N-(2,2-dimethylchroman-4-yl)benzamide] | 26.3 | –
17 | C#CCCC(c1cccc(C(=O)NC2CC(C)(C)Oc3ccccc32)c1)N1C(=N)NC(CC)(CC)CC1=O [Example 214B, 3-[(1R)-1-(4,4-diethyl-2-imino-6-oxo-hexahydropyrimidin-1-yl)pent-4-ynyl]-N-(2,2-dimethylchroman-4-yl)benzamide] | – | EC50: 31.2 nM
18 | C#CCC[C@H](c1cccc(C(=O)N[C@H]2CC(C)(C)Oc3ccccc32)c1)N1C(=N)NC(CC)(CC)CC1=O [Example 214C, 3-[(1R)-1-(4,4-diethyl-2-imino-6-oxo-hexahydropyrimidin-1-yl)pent-4-ynyl]-N-(2,2-dimethylchroman-4-yl)benzamide] | 0.4 | –
19 | CCC1(CC)CC(=O)N(Cc2cccc(C(=O)N[C@@H]3CCOc4ccc(Cl)cc43)c2)C(=N)N1 [Example 215A, N-(6-chlorochroman-4-yl)-3-[(4,4-diethyl-2-imino-6-oxo-hexahydropyrimidin-1-yl)methyl]benzamide] | 70 | –
20 | C[C@H](c1cccc(C(=O)NC2c3ccccc3OC(C)(C)C2(C)O)c1)N1C(=N)NC(C)(C)CC1=O (stereo partly drawn) [Example 222, N-(3-hydroxy-2,2,3-trimethyl-chroman-4-yl)-3-[(1R)-1-(2-imino-4,4-dimethyl-6-oxo-hexahydropyrimidin-1-yl)ethyl]benzamide] | 2.28 | –
